Measured values published in ChEMBL document CHEMBL3351844, “Synthesis and evaluation of iminocoumaryl and coumaryl derivatized glycosides as galectin antagonists” (Bioorg Med Chem Lett, 2014).
Activity calls are given as the source filed them. The rule behind the calls is not given here.

Legend:
Galectin-1 [1] = target: T1, Galectin-1 (Homo sapiens, UniProt P09382); test: Antagonist activity against human galectin 1 by fluorescence polarization assay
Galectin-3 = Galectin-3 (Homo sapiens, UniProt P17931); test: Antagonist activity against human galectin 3 by fluorescence polarization assay
Galectin-3, sequence (P17931 whole entry): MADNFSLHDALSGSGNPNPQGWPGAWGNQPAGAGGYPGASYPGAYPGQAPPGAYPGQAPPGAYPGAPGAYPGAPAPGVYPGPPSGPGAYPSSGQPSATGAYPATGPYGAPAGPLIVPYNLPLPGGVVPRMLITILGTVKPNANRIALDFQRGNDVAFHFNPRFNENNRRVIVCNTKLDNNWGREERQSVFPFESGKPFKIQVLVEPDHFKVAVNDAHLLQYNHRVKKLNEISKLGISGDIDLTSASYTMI

Galectin-7 = Galectin-7 (Homo sapiens, UniProt P47929); test: Antagonist activity against human galectin 7 by fluorescence polarization assay
Galectin-7, sequence (P47929 whole entry, the tested form may be a part): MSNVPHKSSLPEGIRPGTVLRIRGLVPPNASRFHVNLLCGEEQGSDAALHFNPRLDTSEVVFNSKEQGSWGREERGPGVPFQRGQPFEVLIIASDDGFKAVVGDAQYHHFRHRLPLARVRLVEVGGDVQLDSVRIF

Galectin-8 = target: T2, Galectin-8 (Homo sapiens, UniProt O00214); test: Antagonist activity against human galectin 8 N-terminal domain by fluorescence polarization assay
T2 sequence (O00214 whole entry): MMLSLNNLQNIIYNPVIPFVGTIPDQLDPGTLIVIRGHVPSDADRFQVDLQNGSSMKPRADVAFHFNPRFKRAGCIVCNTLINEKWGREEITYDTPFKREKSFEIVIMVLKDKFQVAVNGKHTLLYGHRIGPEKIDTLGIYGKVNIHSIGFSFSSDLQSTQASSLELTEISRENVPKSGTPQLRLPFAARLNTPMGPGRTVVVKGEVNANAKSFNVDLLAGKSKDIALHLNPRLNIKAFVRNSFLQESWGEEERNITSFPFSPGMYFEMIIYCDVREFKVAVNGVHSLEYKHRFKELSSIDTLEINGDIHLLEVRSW

Galectin-9 = Galectin-9 (Homo sapiens, UniProt O00182); test: Antagonist activity against human galectin 9 N-terminal domain by fluorescence polarization assay
Galectin-9, sequence (O00182 whole entry, the tested form may be a part): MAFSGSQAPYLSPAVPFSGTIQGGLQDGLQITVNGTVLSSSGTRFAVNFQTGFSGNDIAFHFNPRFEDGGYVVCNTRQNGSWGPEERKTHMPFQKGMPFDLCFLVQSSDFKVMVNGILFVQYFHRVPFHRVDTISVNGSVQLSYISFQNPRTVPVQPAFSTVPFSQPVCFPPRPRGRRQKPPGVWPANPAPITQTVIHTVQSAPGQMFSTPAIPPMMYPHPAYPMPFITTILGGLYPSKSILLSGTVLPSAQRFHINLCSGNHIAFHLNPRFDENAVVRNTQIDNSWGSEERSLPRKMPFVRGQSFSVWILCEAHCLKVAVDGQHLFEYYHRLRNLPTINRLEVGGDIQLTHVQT

Galectin-1 [2] = target: T1, Galectin-1; conditions: 10 mM
Description: Antagonist activity against human galectin 1 at 10 mM by fluorescence polarization assay

T1 sequence (P09382 whole entry): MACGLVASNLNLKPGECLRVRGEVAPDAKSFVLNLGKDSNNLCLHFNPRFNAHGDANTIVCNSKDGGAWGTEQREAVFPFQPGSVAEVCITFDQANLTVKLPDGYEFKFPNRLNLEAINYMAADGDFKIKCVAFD

Compound	Kd (Galectin-1 [1]; read-out: Kd) [µM]	Kd (Galectin-3) [µM]	Kd (Galectin-7; read-out: Kd) [µM]	Kd (Galectin-8) [µM]	Kd (Galectin-9) [µM]	Kd (Galectin-7)	inhibition (Galectin-1 [2])	Kd (Galectin-1 [1])
CO[C@H]1O[C@H](CO)[C@H](O)[C@H](OCc2cc3ccccc3oc2=O)[C@H]1O	1900	78	850	180	180	–	–	–
Cc1ccc(S(=O)(=O)/N=c2\oc3ccccc3cc2CO[C@@H]2O[C@H](CO)[C@H](O)[C@H](O)[C@H]2O)cc1	3600	10000	–	3900	7100	Not Active	–	–
CO[C@H]1O[C@H](CO)[C@H](O)[C@H](OCc2cc3ccccc3o/c2=N\S(=O)(=O)c2ccc(C)cc2)[C@H]1OC(C)=O	5100	97	180	170	36	–	–	–
CO[C@H]1O[C@H](CO)[C@H](O)[C@H](O)[C@H]1O	–	–	11000	–	2800	–	inactive	–
CS[C@@H]1O[C@H](CO)[C@H](O)[C@H](NC(=O)c2ccc(C)cc2)[C@H]1O	980	–	> 2000	> 2000	1500	–	–	–
CO[C@H]1O[C@H](CO)[C@H](O)[C@H](OCc2cc3ccccc3o/c2=N\S(=O)(=O)c2ccccc2)[C@H]1O	650	81	1100	390	76	–	–	–
CO[C@H]1O[C@H](CO)[C@H](O)[C@H](OCc2cc3ccccc3o/c2=N\S(=O)(=O)c2ccccc2)[C@H]1OC(C)=O	4500	130	230	270	45	–	–	–
CS[C@@H]1O[C@H](CO)[C@H](O)[C@H](n2cc(C(=O)NCc3ccccc3)nn2)[C@H]1O	–	–	–	–	> 5000	–	–	Not Active
Cc1ccc(S(=O)(=O)/N=c2\oc3ccccc3cc2CO[C@@H]2O[C@H](CO)[C@@H](O[C@@H]3O[C@H](CO)[C@H](O)[C@H](O)[C@H]3O)[C@H](O)[C@H]2O)cc1	500	130	–	140	80	Not Active	–	–
CO[C@@H]1O[C@H](CO)[C@@H](O[C@@H]2O[C@H](CO)[C@H](O)[C@H](O)[C@H]2O)[C@H](O)[C@H]1O	190	220	110	62	23	–	–	–
CO[C@H]1O[C@H](CO)[C@H](O)[C@H](OCc2cc3ccccc3o/c2=N\S(=O)(=O)c2ccc(C)cc2)[C@H]1O	1700	120	1700	250	140	–	–	–
